Data reported in paper PMC9732821, “Neurotrophic Activity and Its Modulation by Zinc Ion of a Dimeric Peptide Mimicking the Brain-Derived Neurotrophic Factor N-Terminal Region” (ACS Chemical Neuroscience, 2022).

Assays:
SH-SY5Y cells = assay: RT-PCR gene expression analysis of differentiated SH-SY5Y cells; assay type: cell-based, human; details: RT-PCR mRNA, four replicas, two independent experiments
From the text: Figure 4 Neuronal differentiation and polarization genes stimulated by BDNF and d-bdnf mimetic peptide. (A) Schematic timeline of the experiment. As non-differentiated control, we used untreated cells seeded at the same density (non-diff ctrl, white bars). As a control for the expression of neuronal polarization genes, we used cells stopped at d5 (non-pol ctrl). (B) RT-PCR analysis of the mRNA expression levels of neuronal differentiation markers (NTRK2, LAMC1, and NEFM) and polarization markers (GAP43, MAP2, and MAPT) induced by BDNF and d-bdnf with respect to non-diff and non-pol ctrl samples, respectively. Data are expressed as fold changes with respect to the average ctrl value set to 1, and the mean ± SEM of four replicas from two independent experiments are reported (****p < 0.0001, ***p < 0.001, **p < 0.01, and *p < 0.05 according to the one-way ANOVA with Bonferroni’s multiple comparison test).
Figure 6 Modulation of d-bdnf neurotrophic activity by Zn^2+ ion. (A) Neurite outgrowth assay for d-bdnf-Zn^2+ conjugate. The ctrl and d-bdnf samples are the same as in Figure 2C, here reported as a reference. Data represent the mean ± SD of fields pooled from two independent replicas. (****p < 0.0001, according to the one-way ANOVA with Dunnett’s multiple comparison test). (B) RT-PCR analysis of the mRNA expression levels of the marker genes (as described in Figure 3B). Data are expressed as fold changes with respect to the average ctrl value set to 1, and the mean ± SEM of four replicas from two independent experiments are reported (**p < 0.01, *p < 0.05, vs ctrl; #p < 0.05 vs d-bdnf, according to one-way ANOVA with Bonferroni’s multiple comparison test). […]
RT-PCR analysis of SH-SY5Y differentiation
At the end of each differentiation treatment and relative controls, cells were col lected, and total RNA was extracted using the Rneasy Mini Kit (Qiagen). The RNA concentration and purity were checked at the Nanodrop instrument (Thermofisher). cDNA synthesis was performed with 1 µg of RNA using i-Script cDNA synthesis kit (BioRad). Real-time PCR reactions consisted of 10 µL of SsoAdvanced™ Universal SYBR® Green Supermix - Bio-Rad, 0.5 µL of both 10 µM forward and reverse primers, 5 µL of cDNA (50 ng), and 4 µL of H2O. The primer sequences and the product size […]
HPRT1 and NEFM primers were purchased by Biorad (qHsaCID0016375 and qHsaCED0043021, Bio-Rad). The mRNA levels for each sample were normalized against GAPDH and HPRT1 mRNA levels, and the relative expression was calculated by using the methods of the […]

ERK = assay: competition experiments, ERK phosphorylation with BDNF plus d-bdnf in differentiated SH-SY5Y cells; assay type: cell-based, human; details: BDNF 1 nM + d-bdnf 10 nM-100 µM, or d-bdnf 10 µM + BDNF 0.074 nM–10 nM; 10 min; 2 independent replicas
From the text: The possibility of mimicking the function of the full-length BDNF protein by using a linear peptide fragment encompassing the first 12 amino acids of the mature NT N-terminal was already postulated.[31] Here, we named this sequence as m-bdnf (Figure 1A) and performed a systematic comparison between the performance of the full-length human BDNF produced recombinantly in Escherichia coli([32]) and (i) m-bdnf, (ii) a dimeric peptide displaying two copies of the m-bdnf sequence covalently bound by a disulfide bridge (d-bdnf), and (iii) a monomeric peptide displaying the scrambled sequence of m-bdnf (s-bdnf). We first investigated the ability of these peptides to activate the TrkB receptor. […] Specifically, an EC50 concentration of BDNF (1 nM) or of d-bdnf (10 μM) was used in combination with the increasing concentration of d-bdnf and BDNF, respectively, and the increase of ERK phosphorylation was assessed. […] Of note, we also performed a non-permeabilizing immunofluorescence analysis to quantify the membrane-bound BDNF in differentiated SH-SY5Y cells in the absence or presence of BDNF and d-bdnf (Figure S1C,D). […] The same increment was not observed upon treatment with the d-bdnf peptide, while instead we measured a slight (∼18%) decrease of the signal possibly due to the ability of the peptide to displace endogenous BDNF at the tested dose (10 μM). […]

HSDPARRGELSVC-C-VSLEGRRAPDSH (disulfide) [d-bdnf]
MAPT expression (SH-SY5Y cells; axon marker, d-bdnf vs BDNF): to a similar extent to BDNF
MAP2 expression (SH-SY5Y cells; dendrite marker, d-bdnf vs BDNF): to a similar extent to BDNF
LAMC1 expression (SH-SY5Y cells; d-bdnf vs BDNF): to promote, to a similar extent of BDNF, the expression of NTRK2 and LAMC1 genes
NTRK2 expression (SH-SY5Y cells; d-bdnf vs BDNF): to promote, to a similar extent of BDNF, the expression of NTRK2 and LAMC1 genes
GAP43 gene expression (SH-SY5Y cells): not significantly increased by either the d-bdnf doses tested
NEFM gene expression (SH-SY5Y cells): significantly increased only at the highest d-bdnf dose (10 μM)
competition / additivity on ERK phosphorylation (ERK): neither antagonist nor additive effects
